# What was measured:
# RML-1 = target: T1, RML-1 (Caenorhabditis elegans, UniProt Q9XUS4); assay: EnzChek pyrophosphate assay, […] nm; assay type: biochemical; conditions: 1 mM Glc-1-P; 5 mM MgCl2, pH 7.5, 25°C
# T1 sequence (Q9XUS4 1-511): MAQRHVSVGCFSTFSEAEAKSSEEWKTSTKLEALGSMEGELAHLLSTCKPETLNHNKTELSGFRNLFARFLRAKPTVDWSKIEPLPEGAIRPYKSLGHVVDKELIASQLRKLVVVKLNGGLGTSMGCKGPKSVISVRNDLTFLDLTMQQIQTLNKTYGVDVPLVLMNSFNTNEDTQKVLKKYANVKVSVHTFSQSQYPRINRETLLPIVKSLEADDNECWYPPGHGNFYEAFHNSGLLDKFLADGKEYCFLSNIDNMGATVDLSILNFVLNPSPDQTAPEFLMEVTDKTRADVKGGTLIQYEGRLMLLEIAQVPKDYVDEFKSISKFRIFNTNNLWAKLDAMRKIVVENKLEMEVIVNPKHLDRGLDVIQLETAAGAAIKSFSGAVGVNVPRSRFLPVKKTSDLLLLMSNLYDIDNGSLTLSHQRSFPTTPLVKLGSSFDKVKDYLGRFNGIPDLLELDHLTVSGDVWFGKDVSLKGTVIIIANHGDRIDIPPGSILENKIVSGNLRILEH
# RML-4–RML-5 = target: T2, RML-4–RML-5 (Caenorhabditis elegans, UniProt Q17556); assay: LC–MS; assay type: biochemical; conditions: formed from dTDP-4-keto-6-deoxyglucose with RML-3 and NAD(P)H, 25°C
# T2 sequence (Q17556 1-631): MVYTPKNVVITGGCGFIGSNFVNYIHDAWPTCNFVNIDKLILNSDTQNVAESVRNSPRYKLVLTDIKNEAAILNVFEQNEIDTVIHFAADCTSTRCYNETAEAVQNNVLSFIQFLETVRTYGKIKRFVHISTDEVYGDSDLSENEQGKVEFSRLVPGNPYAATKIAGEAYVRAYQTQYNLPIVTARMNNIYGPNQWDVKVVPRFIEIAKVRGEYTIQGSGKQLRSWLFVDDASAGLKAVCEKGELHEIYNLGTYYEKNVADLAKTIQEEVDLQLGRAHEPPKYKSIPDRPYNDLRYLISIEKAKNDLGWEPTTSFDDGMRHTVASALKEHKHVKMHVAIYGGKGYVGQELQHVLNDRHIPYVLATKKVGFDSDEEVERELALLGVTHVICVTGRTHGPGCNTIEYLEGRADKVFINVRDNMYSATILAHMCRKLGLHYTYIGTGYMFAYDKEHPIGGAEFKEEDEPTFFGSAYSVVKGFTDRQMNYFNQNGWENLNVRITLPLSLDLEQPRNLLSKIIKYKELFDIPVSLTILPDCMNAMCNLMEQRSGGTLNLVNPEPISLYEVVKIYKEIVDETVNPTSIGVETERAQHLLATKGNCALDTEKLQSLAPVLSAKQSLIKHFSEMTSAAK
# T2 sequence (Q95XM5 1-383 partner): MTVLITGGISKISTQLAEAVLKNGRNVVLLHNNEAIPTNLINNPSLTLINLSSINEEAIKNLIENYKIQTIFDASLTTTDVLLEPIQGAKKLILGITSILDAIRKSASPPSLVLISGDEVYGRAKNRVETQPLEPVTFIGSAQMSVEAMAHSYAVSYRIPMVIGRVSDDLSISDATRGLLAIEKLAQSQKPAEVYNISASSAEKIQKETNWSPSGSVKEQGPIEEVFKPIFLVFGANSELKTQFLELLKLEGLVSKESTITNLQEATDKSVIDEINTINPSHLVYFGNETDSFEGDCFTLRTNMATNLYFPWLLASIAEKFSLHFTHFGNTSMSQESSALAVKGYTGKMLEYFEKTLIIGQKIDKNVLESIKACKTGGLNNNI
SMILES,Km (RML-1) [µM],LC-MS; 1H NMR and COSY of HPLC-purified product (RML-4–RML-5)
Cc1cn([C@H]2C[C@H](O)[C@@H](COP(=O)(O)OP(=O)(O)OP(=O)(O)O)O2)c(=O)[nH]c1=O [dTTP],24.2 ± 2.86,–
Cc1cn([C@H]2C[C@H](O)[C@@H](COP(=O)(O)OP(=O)(O)O[C@H]3O[C@@H](C)[C@H](O)[C@@H](O)[C@H]3O)O2)c(=O)[nH]c1=O [dTDP-rhamnose],–,the final product is dTDP-rhamnose when dTDP-4-keto-6-deoxyglucose is incubated with RML-3 and RML-4–RML-5
O=c1ccn([C@@H]2O[C@H](COP(=O)(O)OP(=O)(O)OP(=O)(O)O)[C@@H](O)[C@H]2O)c(=O)[nH]1 [UTP],9.47 ± 1.7,–

# Source: PMC4888466 (Biochemical Journal, 2016)
